Experiments:
[1] = tested on: calpain I in Molt-4 cells (α-spectrin breakdown products); test: Inhibition of calpain activation in intact Molt-4 cells (calpain-generated spectrin breakdown products); format: cell-based; details: Homo sapiens, calcium and ionophore (ionomycin), read-out: % Inhibition of BDPs (10 μM)
Calpain I = target: T1, Calpain I (Homo sapiens, UniProt P07384); test: Inhibition and rate of inactivation of calpain I (Succ-Leu-Tyr-MNA hydrolysis); format: biochemical; details: mean of three or more independent analyses, corrected for substrate, k2 = kapp(1+[S]/Km), read-out: k2 (second order rate constant of inactivation), A = Calpain I
T1 construct: Calpain I was purified from human red blood cells; from tissue; host or cells: human red blood cells (packed, outdated)
T1 sequence (P07384 1-714): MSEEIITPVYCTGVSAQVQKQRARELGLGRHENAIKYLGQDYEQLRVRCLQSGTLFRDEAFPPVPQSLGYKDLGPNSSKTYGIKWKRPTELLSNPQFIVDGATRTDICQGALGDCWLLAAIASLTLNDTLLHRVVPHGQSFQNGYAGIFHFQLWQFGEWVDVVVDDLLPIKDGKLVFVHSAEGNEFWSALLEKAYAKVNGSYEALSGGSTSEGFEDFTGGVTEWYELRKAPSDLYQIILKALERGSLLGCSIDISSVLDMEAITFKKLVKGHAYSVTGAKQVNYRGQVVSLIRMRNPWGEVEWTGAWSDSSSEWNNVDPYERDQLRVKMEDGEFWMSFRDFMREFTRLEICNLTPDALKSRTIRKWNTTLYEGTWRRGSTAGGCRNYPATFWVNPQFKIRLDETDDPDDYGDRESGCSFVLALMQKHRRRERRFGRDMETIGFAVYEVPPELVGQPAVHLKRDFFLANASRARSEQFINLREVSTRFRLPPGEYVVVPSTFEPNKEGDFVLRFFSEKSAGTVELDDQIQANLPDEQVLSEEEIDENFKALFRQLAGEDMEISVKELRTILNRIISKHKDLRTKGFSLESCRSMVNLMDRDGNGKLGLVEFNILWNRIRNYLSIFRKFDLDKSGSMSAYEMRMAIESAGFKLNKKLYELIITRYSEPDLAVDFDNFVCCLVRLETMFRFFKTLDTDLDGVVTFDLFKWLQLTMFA
T1 sequence (P04632 1-268 partner): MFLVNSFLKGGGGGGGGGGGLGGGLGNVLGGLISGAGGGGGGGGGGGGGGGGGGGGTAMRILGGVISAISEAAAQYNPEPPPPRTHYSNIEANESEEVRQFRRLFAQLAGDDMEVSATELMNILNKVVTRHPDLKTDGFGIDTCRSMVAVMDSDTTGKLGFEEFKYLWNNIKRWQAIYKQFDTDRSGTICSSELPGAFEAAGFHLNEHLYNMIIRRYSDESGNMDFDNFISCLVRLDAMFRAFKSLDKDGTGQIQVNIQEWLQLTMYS
Procedure: To evaluate inhibitory activity of our compounds, stocks (40 times concentrated) of each compound to be tested were prepared in 100% anhydrous dimethyl sulfoxide (DMSO) and 5 μl of each inhibitor preparation was aliquoted into each of three wells of a 96 well plate. Calpain I was purified from human red blood cells using a modification of the method described by Lee, W. J. et al. (Biochem. Internatl. (1990)22(1): 163-171). Briefly, 3 units of packed outdated red blood cells were washed 3× by repeated centrifugation at 500 rpm for 10 minutes through 900 mls of 0.9% NaCl. Cells were lysed in 20 mM Tris/1 mM EDTA/1 mM EGTA/5 mM mercaptoethanol (Buffer A) and centrifuged for 1 hour at 12,000 rpm in a GSA rotor using a Sorval centrifuge. The supernatant was collected and applied to a DEAE-sepharose FF column equilibrated in Buffer A+25 mM NaCl. After washing the column in Buffer A+25 mM NaCl, the bound protein was eluted at 117 ml/hr with a 25 mM to 150 mM NaCl linear gradient in Buffer A collecting 200, 10 mL fractions. Two μl of every fifth fraction was applied to nitrocelluose using a dot blot apparatus and calpain containing fractions identified by Western analysis. For detection of calpain, nitrocellulose sheets were first blocked in 5% Blotto (5% Carnation instant milk/10 mM Tris/[…]150 mM NaCl) for 30 minutes, followed by incubation for 1 hour in antibody directed against Calpain I (rabbit anti-human calpain I polyclonal sera, 1:1000 dilution in 5% Blotto). After three 5 minutes washes in 10 mM Tris/150 mM NaCl/0.05% Tween 20 the nitrocellulose was incubated for 1 hour in secondary alkaline phosphatase conjugated antibody (Biorad Cat#170-6518 1:2000 in 5% Blotto). After three 5 minutes washes in 10 mM Tris/150 mM NaCl/0.05% Tween 20 and 1 wash in 10 mM Tris/150 mM NaCl the nitrocellulose was incubated for up to 2 hours in a colorimetric substrate solution (Biorad Alkaline Phosphatase Substrate conjugate kit, cat#170-6432). The reaction was stopped by washing in water. After fractions containing calpain, and those in between, were pooled, solid ammonium sulfate was added to achieve a 30% solution and the mixture stirred for 1 hour at 4° C. Following collection of the precipitate by centrifugation for 1 hour at 4° C. at 12K rpm in a GSA rotor, the supernatant was collected and brought to 45% in ammonium sulfate. After stirring for 1 hour at 4° C., centrifugation was repeated. The supernatant was discarded and the precipitate resuspended in approximately 7 mls and dialyzed overnight at 4° C. against Buffer A+50 mM NaCl. The sample was then applied to a S300 gel filtration column preequilibrated in Buffer A+50 mM NaCl, washed and eluted at a flow rate of 20 ml/hr, collecting 200, 4 ml fractions. The peak of calpain was determined by assaying aliquots of every fifth fraction for enzyme activity monitored by the hydrolysis of a fluorogenic dipeptide substrate as described below. The peak fractions were pooled and the enzyme preparation used to test compounds for inhibitory activity. As an alternate to enzyme isolated from tissue sources, recombinant human calpain I has also been used to monitor compounds for inhibitory activity.
The foregoing enzyme preparation was diluted into assay buffer (i.e., 50 mM Tris, 50 mM NaCl, 1 mM EDTA, 1 mM EGTA, and 5 mM β-mercaptoethanol, pH 7.5 including 0.2 mM Succ-Leu-Tyr-MNA) and 175 μl aliquoted into the same wells containing the independent inhibitor stocks as well as to positive control wells containing 5 μl DMSO, but no compound. To start the reaction, 20 μl of 50 mM CaCl2 in assay buffer was added to all wells of the plate, excepting three, which were used as background signal baseline controls. Substrate hydrolysis was monitored every 5 minutes for a total of 30 minutes using Flouroskan II (ex=340 nm; em=430 nm). Substrate hydrolysis in the absence of inhibitor was linear for up to 15 minutes. […]

Cathepsin B = target: T2, Cathepsin B (Homo sapiens, UniProt P07858); test: Inhibition and rate of inactivation of cathepsin B (Cbz-Phe-Arg-AMC hydrolysis); format: biochemical; details: pH 6.0, 0.1 mM substrate, read-out: k2 (second order rate constant of inactivation), C = Cathepsin B
T2 construct: purchased Calbiochem 219364
Procedure: Additionally, the order of reagents added to the plate was altered because both enzymes are constitutively active. Following inhibitor addition to the plates appropriate 2× concentrated stock dilutions of the enzyme preparations were made in assay buffer and 100 ul added to each well. The assay was initiated by addition of 100 ul of 2× concentrated stock dilution of substrate in assay buffer. Substrate hydrolysis was monitored using a Fluroskan II (ex=390 nm; em=460 nm).
Inhibition of enzyme activity was calculated as the percent decrease in the rate of substrate hydrolysis in the presence of inhibitor (.upsilon.i) relative to the rate in its absence (.upsilon.o). Comparison between .upsilon.o and .upsilon.i was made within the linear range for substrate hydrolysis. For screening, compounds were tested at 10 μM. Compounds having ≥50% inhibition at 10 μM were considered active. Apparent second order rate constants were determined from analysis of reaction progress curves under pseudo-first order conditions. Each determination represents the mean of three or more independent single cuvette analyses continually monitored via a Perkin-Elmer LS50B spectrofluorimeter. The rate of inhibition of hydrolysis was obtained by fitting the curve to the exponential equation (1):
y=Ae^-k.spsb.obs·t +B (1)
where y (Pt) is the product formed at time t. A and B are constants. A, the amplitude of the reaction, is given by [Po -P.varies. ] and B (=P.varies.) is the maximal product formed when the reaction is […]. This was corrected for the presence of equation (2): […]

α-chymotrypsin = target: T3, α-chymotrypsin (Bos taurus, UniProt P00766); test: Inhibition of the serine protease α-chymotrypsin (Succ-Ala-Ala-Pro-Phe-AMC hydrolysis); format: biochemical; details: pH 7.5, 0.03 mM substrate
T3 construct: purchased Sigma Chem. Co. C-3142
Procedure: Additionally,because α-chymotrypsin is not a calcium sensitive enzyme and is constituitively active, following addition of inhibitor stocks to the 96 well plates, 100 ul of a 2 fold concentrated stock of enzyme in dilution buffer was first added and the reaction started by addition of 100 ul of a 2 fold concentrated stock of substrate in assay buffer. Substrate hydrolysis was monitored every 5 minutes up to 30 minutes using a Fluoroskan II ([…]).

Compound | inhibition at 10 µM [1] [%] | kinact/KI (Calpain I) [M⁻¹ s⁻¹] | kinact/KI (Cathepsin B) [M⁻¹ s⁻¹] | inhibition at 10 µM (α-chymotrypsin) [%]
CC(C)C[C@H](NC(=O)[C@H](CC(C)C)NC(=O)OCc1ccccc1)C(=O)COn1nnc2ccccc21 [Example 4, 1-[N-[N-Benzyloxycarbonyl-L-leucyl]-3S-5-methyl-3-amino-2-oxohexyloxy]benzotriazole] | 57 | 175000 | 19000 | –
CC(C)C[C@H](NC(=O)OCc1ccccc1)C(=O)N[C@@H](Cc1ccccc1)C(=O)COn1nnc2ccc(C(F)(F)F)cc21 [Example 7, 1-[N-[N-Benzyloxycarbonyl-L-leucyl]-3S-4-phenyl-3-amino-2-oxobutyloxy]-6'-trifluoromethylbenzotriazole] | – | 160000 | 18000 | 99
CC(C)C[C@H](NC(=O)OCc1ccccc1)C(=O)N[C@@H](Cc1ccccc1)C(=O)COn1nnc2ccc(Cl)cc21 [Example 8, 1-[N-[N-Benzyloxycarbonyl-L-leucyl]-3S-4-phenyl-3-amino-2-oxybutyloxy]-6'-chlorobenzotriazole] | 57 | 101000 | – | –
COc1ccc2nnn(OCC(=O)[C@H](Cc3ccccc3)NC(=O)[C@H](CC(C)C)NC(=O)OCc3ccccc3)c2c1 [Example 9, 1-[N-[N-Benzyloxycarbonyl-L-leucyl]-3S-4-phenyl-3-amino-2-oxobutyloxy]-6'-methoxybenzotriazole] | – | 125000 | 52000 | 83
CC(C)C[C@H](NC(=O)OCc1ccccc1)C(=O)N[C@@H](Cc1ccccc1)C(=O)COn1nnc2ccc(F)cc21 [Example 10, 1-[N-[N-Benzyloxycarbonyl-L-leucyl]-3S-4-phenyl-3-amino-2-oxobutyloxy]-6'-fluorobenzotriazole] | – | 50000 | – | 89
Cc1cc2nnn(OCC(=O)[C@H](Cc3ccccc3)NC(=O)[C@H](CC(C)C)NC(=O)OCc3ccccc3)c2cc1Cl [Example 11, 1-[N-[N-Benzyloxycarbonyl-L-leucyl]-3S-4-phenyl-3-amino-2-oxobutyloxy]-6'-chloro-5'-methylbenzotriazole] | – | 98000 | 28000 | 100
Cc1cccc2c1nnn2OCC(=O)[C@H](Cc1ccccc1)NC(=O)[C@H](CC(C)C)NC(=O)OCc1ccccc1 [Example 12, 1-[N-[N-Benzyloxycarbonyl-L-leucyl]-3S-4-phenyl-3-amino-2-oxobutyloxy]-4'-methylbenzotriazole] | – | 46000 | – | 94
CC(C)C[C@H](NC(=O)OCc1ccccc1)C(=O)N[C@@H](Cc1ccccc1)C(=O)COn1nnc2c(F)c(F)c(F)c(F)c21 [Example 16, 1-[N-[N-Benzyloxycarbonyl-L-leucyl]-3S-4-phenyl-3-amino-2-oxybutyloxy]-4',5',6',7'-tetrafluorobenzotriazole] | 64 | 93000 | – | –
CC(C)C[C@H](NC(=O)OCc1ccccc1)C(=O)N[C@@H](Cc1ccccc1)C(=O)COn1nnc2ncccc21 [Example 19, 1-[N-[N-Benzyloxycarbonyl-L-leucyl]-3S-4-phenyl-3-amino-2-oxybutyloxy]-(1H)-triazolo[4,5-b]pyridine] | 54 | 57000 | – | –
CC(C)C[C@H](NC(=O)OCc1ccccc1)C(=O)N[C@@H](Cc1ccccc1)C(=O)COn1nnc2c(F)c(F)ccc21 [Example 25, 1-[N-[N-Benzyloxycarbonyl-L-leucyl]-3S-4-phenyl-3-amino-2-oxybutyloxy]-4',5'-difluorobenzotriazole] | 52 | 67000 | 300000 | –
CC(C)CC(CC(=O)C1c2ccccc2Oc2ccccc21)C(=O)N[C@@H](Cc1ccccc1)C(=O)COn1nnc2ccccc21 (stereo partly drawn) [Example 39, 1-[N-[2-(2-Methylpropyl)-1,4-dioxo-4-(xanthen-9-yl)butyl]-3S-3-amino-2-oxo-4-phenylbutyloxy]benzotriazole] | – | 46000 | 55000 | 100
CC(C)CC(CC(=O)C1c2ccccc2Oc2ccccc21)C(=O)N[C@@H](CC(C)C)C(=O)COn1nnc2ccccc21 (stereo partly shown) [Example 40] | – | 2700 | 48000 | 100
